Assay results taken from PubChem BioAssay (NCI).
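Assay format: 96-well plates, 48-hour exposure. TGI is the concentration that stops growth completely.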

Legend:
Assay in all cases: DTP human tumour cell line panel, 48 h
SNB-78 CNS = test system: SNB-78 CNS
DMS 273 small cell lung = test system: DMS 273 small cell lung
KM20L2 colon = test system: KM20L2 colon
XF 498 CNS = test system: XF 498 CNS

## O=C1C=C(N2CC2)C(=O)C=C1N1CC1
SNB-78 CNS
  TGI: 1800 nM
DMS 273 small cell lung
  TGI: 520 nM
KM20L2 colon
  TGI: 1740 nM
XF 498 CNS
  TGI: 538 nM
